# Results from PubChem BioAssay (NCI).
#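 GI50 is the concentration that inhibits growth by half. At the TGI there is no net growth.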
# Key:
# Assay in all cases: DTP human tumour cell line panel, 384-well format
# SF-268 CNS = test system: SF-268 CNS
# LOX IMVI melanoma = test system: LOX IMVI melanoma
# SF-539 CNS = test system: SF-539 CNS
# RPMI-8226 leukemia = test system: RPMI-8226 leukemia
# BT-549 breast = test system: BT-549 breast
# SN12C renal = test system: SN12C renal
# COLO 205 colon = test system: COLO 205 colon
# SK-MEL-5 melanoma = test system: SK-MEL-5 melanoma
# PC-3 prostate = test system: PC-3 prostate
# SNB-19 CNS = test system: SNB-19 CNS
# RXF 393 renal = test system: RXF 393 renal
# SW-620 colon = test system: SW-620 colon
# HT29 colon = test system: HT29 colon
# NCI-H460 NSCLC = test system: NCI-H460 NSCLC
# A549 NSCLC = test system: A549 NSCLC
# UACC-257 melanoma = test system: UACC-257 melanoma
# HOP-92 NSCLC = test system: HOP-92 NSCLC
# SF-295 CNS = test system: SF-295 CNS
# HL-60(TB) leukemia = test system: HL-60(TB) leukemia
# CAKI-1 renal = test system: CAKI-1 renal
# DU-145 prostate = test system: DU-145 prostate
# HOP-62 NSCLC = test system: HOP-62 NSCLC
# MDA-MB-231 breast = test system: MDA-MB-231 breast
# ACHN renal = test system: ACHN renal
# U251 glioblastoma = test system: U251 glioblastoma
# T-47D breast = test system: T-47D breast
# M14 melanoma = test system: M14 melanoma
# NCI-H226 lung = test system: NCI-H226 lung
# CCRF-CEM leukemia = test system: CCRF-CEM leukemia
# 786-0 renal = test system: 786-0 renal
# MOLT-4 leukemia = test system: MOLT-4 leukemia
# TK-10 renal = test system: TK-10 renal
# HCT-15 colon = test system: HCT-15 colon
# A498 renal = test system: A498 renal
# UACC-62 melanoma = test system: UACC-62 melanoma
# K-562 leukemia = test system: K-562 leukemia
# MALME-3M melanoma = test system: MALME-3M melanoma
# OVCAR-4 ovarian = test system: OVCAR-4 ovarian
# IGROV1 ovarian = test system: IGROV1 ovarian
# MCF7 breast = test system: MCF7 breast
# SK-OV-3 ovarian = test system: SK-OV-3 ovarian
# OVCAR-3 ovarian = test system: OVCAR-3 ovarian
# MDA-MB-435 melanoma = test system: MDA-MB-435 melanoma
# KM12 colon = test system: KM12 colon
# NCI-H522 lung = test system: NCI-H522 lung
# UO-31 renal = test system: UO-31 renal
# NCI/ADR-RES ovarian = test system: NCI/ADR-RES ovarian
# NCI-H23 lung = test system: NCI-H23 lung
# HCC-2998 colon = test system: HCC-2998 colon
# OVCAR-8 ovarian = test system: OVCAR-8 ovarian
# SNB-75 CNS = test system: SNB-75 CNS
# HCT-116 colon = test system: HCT-116 colon
# HS 578T breast = test system: HS 578T breast
# SK-MEL-28 melanoma = test system: SK-MEL-28 melanoma
# SR leukemia = test system: SR leukemia
# MDA-MB-468 breast = test system: MDA-MB-468 breast
# NCI-H322M lung = test system: NCI-H322M lung
# EKVX NSCLC = test system: EKVX NSCLC
structure (smiles),measurement,setting,value
CCN(Cc1cc(Nc2nc(C)cn3c(-c4cn[nH]c4)cnc23)sn1)C(C)(C)CO,GI50,SF-268 CNS,14.8 nM
same,TGI,SF-268 CNS,170 nM
same,GI50,LOX IMVI melanoma,27.6 nM
same,TGI,LOX IMVI melanoma,134 nM
same,GI50,SF-539 CNS,12 nM
same,TGI,SF-539 CNS,57.2 nM
same,GI50,RPMI-8226 leukemia,29.1 nM
same,TGI,RPMI-8226 leukemia,123 nM
same,GI50,BT-549 breast,11.6 nM
same,TGI,BT-549 breast,50.4 nM
same,GI50,SN12C renal,13.7 nM
same,TGI,SN12C renal,61.3 nM
same,GI50,COLO 205 colon,< 10 nM
same,TGI,COLO 205 colon,100 nM
same,GI50,SK-MEL-5 melanoma,118 nM
same,TGI,SK-MEL-5 melanoma,537 nM
same,GI50,PC-3 prostate,21 nM
same,TGI,PC-3 prostate,2000 nM
same,GI50,SNB-19 CNS,53.4 nM
same,TGI,SNB-19 CNS,1070 nM
same,GI50,RXF 393 renal,< 10 nM
same,TGI,RXF 393 renal,133 nM
same,GI50,SW-620 colon,16.3 nM
same,TGI,SW-620 colon,1360 nM
same,GI50,HT29 colon,74.1 nM
same,TGI,HT29 colon,490 nM
same,GI50,NCI-H460 NSCLC,26.1 nM
same,TGI,NCI-H460 NSCLC,1130 nM
same,GI50,A549 NSCLC,42.3 nM
same,TGI,A549 NSCLC,1450 nM
same,GI50,UACC-257 melanoma,1070 nM
same,TGI,UACC-257 melanoma,2310 nM
same,GI50,HOP-92 NSCLC,32.3 nM
same,TGI,HOP-92 NSCLC,178 nM
same,GI50,SF-295 CNS,102 nM
same,TGI,SF-295 CNS,319 nM
same,GI50,HL-60(TB) leukemia,< 10 nM
same,TGI,HL-60(TB) leukemia,< 10 nM
same,GI50,CAKI-1 renal,< 10 nM
same,TGI,CAKI-1 renal,42.1 nM
same,GI50,DU-145 prostate,21.3 nM
same,TGI,DU-145 prostate,1270 nM
same,GI50,HOP-62 NSCLC,21 nM
same,TGI,HOP-62 NSCLC,178 nM
same,GI50,MDA-MB-231 breast,30 nM
same,TGI,MDA-MB-231 breast,830 nM
same,GI50,ACHN renal,33.4 nM
same,TGI,ACHN renal,10600 nM
same,GI50,U251 glioblastoma,42.5 nM
same,TGI,U251 glioblastoma,1180 nM
same,GI50,T-47D breast,1050 nM
same,TGI,T-47D breast,11400 nM
same,GI50,M14 melanoma,< 10 nM
same,TGI,M14 melanoma,142 nM
same,GI50,NCI-H226 lung,< 10 nM
same,TGI,NCI-H226 lung,152 nM
same,GI50,CCRF-CEM leukemia,< 10 nM
same,TGI,CCRF-CEM leukemia,< 10 nM
same,GI50,786-0 renal,45.7 nM
same,TGI,786-0 renal,370 nM
same,GI50,MOLT-4 leukemia,< 10 nM
same,TGI,MOLT-4 leukemia,< 10 nM
same,GI50,TK-10 renal,72.5 nM
same,TGI,TK-10 renal,378 nM
same,GI50,HCT-15 colon,23.2 nM
same,TGI,HCT-15 colon,1560 nM
same,GI50,A498 renal,13.2 nM
same,TGI,A498 renal,299 nM
same,GI50,UACC-62 melanoma,18.7 nM
same,TGI,UACC-62 melanoma,1270 nM
same,GI50,K-562 leukemia,< 10 nM
same,TGI,K-562 leukemia,< 10 nM
same,GI50,MALME-3M melanoma,26.6 nM
same,TGI,MALME-3M melanoma,1130 nM
same,GI50,OVCAR-4 ovarian,114 nM
same,TGI,OVCAR-4 ovarian,357 nM
same,GI50,IGROV1 ovarian,15.5 nM
same,TGI,IGROV1 ovarian,372 nM
same,GI50,MCF7 breast,139 nM
same,TGI,MCF7 breast,1580 nM
same,GI50,SK-OV-3 ovarian,< 10 nM
same,TGI,SK-OV-3 ovarian,41.1 nM
same,GI50,OVCAR-3 ovarian,16.3 nM
same,TGI,OVCAR-3 ovarian,204 nM
same,GI50,MDA-MB-435 melanoma,71.2 nM
same,TGI,MDA-MB-435 melanoma,242 nM
same,GI50,KM12 colon,15.4 nM
same,TGI,KM12 colon,1040 nM
same,GI50,NCI-H522 lung,< 10 nM
same,TGI,NCI-H522 lung,64.6 nM
same,GI50,UO-31 renal,64.1 nM
same,TGI,UO-31 renal,1700 nM
same,GI50,NCI/ADR-RES ovarian,534 nM
same,TGI,NCI/ADR-RES ovarian,4080 nM
same,GI50,NCI-H23 lung,40.9 nM
same,TGI,NCI-H23 lung,274 nM
same,GI50,HCC-2998 colon,99.9 nM
same,TGI,HCC-2998 colon,362 nM
same,GI50,OVCAR-8 ovarian,21.3 nM
same,TGI,OVCAR-8 ovarian,188 nM
same,GI50,SNB-75 CNS,10 nM
same,TGI,SNB-75 CNS,36.9 nM
same,GI50,HCT-116 colon,< 10 nM
same,TGI,HCT-116 colon,1400 nM
same,GI50,HS 578T breast,15.6 nM
same,TGI,HS 578T breast,39 nM
same,GI50,SK-MEL-28 melanoma,169 nM
same,TGI,SK-MEL-28 melanoma,9720 nM
same,GI50,SR leukemia,< 10 nM
same,TGI,SR leukemia,< 10 nM
same,GI50,MDA-MB-468 breast,< 10 nM
same,TGI,MDA-MB-468 breast,< 10 nM
same,GI50,NCI-H322M lung,69.2 nM
same,TGI,NCI-H322M lung,1660 nM
same,GI50,EKVX NSCLC,32.1 nM
same,TGI,EKVX NSCLC,1500 nM
